# Measured values published in patent publication US20220267260A1, “COMPOUNDS CONTAINING A SULFONIC GROUP AS KAT INHIBITORS” (Epizyme, Inc., priority 2016, published 2022).
# Where a name gives a salt, the structure may show the parent alone.
# Key:
# [1] = target: T1, KAT5 (Homo sapiens, UniProt Q92993); assay: KAT5 enzyme inhibition assay (SAMDI mass spectrometry); assay type: biochemical; conditions: His-TEV-FL KAT5-Flag enzyme construct
# T1 construct: His-TEV tag (N, cleaved yes); made in house
# T1 sequence (Q92993 with tags, fused parts or gaps): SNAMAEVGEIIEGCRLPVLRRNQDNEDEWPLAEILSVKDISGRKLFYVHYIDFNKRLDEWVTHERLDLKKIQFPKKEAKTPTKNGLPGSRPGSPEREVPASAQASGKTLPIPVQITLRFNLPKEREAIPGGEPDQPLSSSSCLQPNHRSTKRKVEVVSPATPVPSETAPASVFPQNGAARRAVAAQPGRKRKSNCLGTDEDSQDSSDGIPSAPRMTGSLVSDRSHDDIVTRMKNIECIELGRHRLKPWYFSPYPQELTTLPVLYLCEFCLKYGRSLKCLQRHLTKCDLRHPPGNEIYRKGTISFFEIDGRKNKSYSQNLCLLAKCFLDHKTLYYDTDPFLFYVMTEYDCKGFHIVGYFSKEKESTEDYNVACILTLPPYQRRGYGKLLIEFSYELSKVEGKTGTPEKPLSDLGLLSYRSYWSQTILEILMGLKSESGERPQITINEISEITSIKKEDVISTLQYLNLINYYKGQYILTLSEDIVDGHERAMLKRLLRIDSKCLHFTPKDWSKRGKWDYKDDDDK
# [2] = target: T2, KAT6A (Homo sapiens, UniProt Q92794); assay: KAT6A enzyme inhibition assay (SAMDI mass spectrometry); assay type: biochemical; conditions: His-TEV-KAT6A 501-784 enzyme construct
# T2 construct: His-TEV tag (N, cleaved yes); made in house
# T2 sequence (Q92794 with tags, fused parts or gaps): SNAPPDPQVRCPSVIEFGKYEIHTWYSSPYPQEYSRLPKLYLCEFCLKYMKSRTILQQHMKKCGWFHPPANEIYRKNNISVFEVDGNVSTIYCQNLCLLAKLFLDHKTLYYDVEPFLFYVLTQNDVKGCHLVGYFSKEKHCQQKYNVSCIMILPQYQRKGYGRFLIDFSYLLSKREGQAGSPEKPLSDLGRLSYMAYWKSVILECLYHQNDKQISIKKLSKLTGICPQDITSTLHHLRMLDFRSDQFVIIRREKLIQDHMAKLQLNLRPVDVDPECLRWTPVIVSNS
IC50 [1],IC50 [2],Structure (SMILES)
> 100 µM,> 100 µM,O=S(=O)(NNc1n[nH]c2ccccc12)c1ccccc1 [Compound I-44]
> 100 µM,> 100 µM,O=S(=O)(NNc1n[nH]c2cccc(F)c12)c1ccccc1 [Compound I-45]
> 100 µM,> 100 µM,O=S(=O)(NNc1n[nH]c2ccc(-c3ccccc3)cc12)c1ccccc1 [Compound I-46]
> 100 µM,> 100 µM,Cn1nc(NNS(=O)(=O)c2ccccc2)c2cc(-c3ccccc3)ccc21 [Compound I-47]
> 100 µM,> 100 µM,O=S(=O)(NNc1n[nH]c2c(F)cccc12)c1ccccc1 [Compound I-48]
> 100 µM,> 100 µM,Cn1nc(NNS(=O)(=O)c2ccccc2)c2cccc(-c3ccccc3)c21 [Compound I-49]
50 to 100 µM,> 100 µM,O=S(=O)(NNc1n[nH]c2c(-c3ccccc3)cccc12)c1ccccc1 [Compound I-50]
10 to 50 µM,10 to 50 µM,O=C(NNS(=O)(=O)c1ccccc1)c1cc(-c2ccccc2)cc2[nH]cnc12 [Compound I-53]
10 to 50 µM,10 to 50 µM,Cc1cc(-c2ccccc2)cc(C(=O)NNS(=O)(=O)C2COC2)c1F [Compound I-55]
> 100 µM,10 to 50 µM,Cc1cc(-c2ccccc2)cc(C(=O)NNS(=O)(=O)C2CN(Cc3ccccc3)C2)c1F [Compound I-61]
> 100 µM,10 to 50 µM,Cc1cc(-c2ccccc2)cc(C(=O)NNS(=O)(=O)C2CN(CCc3ccccc3)C2)c1F [Compound I-62]
> 100 µM,> 100 µM,Cc1cc(-c2ccccc2)cc(C(=O)NNS(=O)(=O)C2CN(Cc3ccc(Cl)cc3)C2)c1F [Compound I-63]
> 100 µM,> 100 µM,O=S(=O)(Nc1ncc(-c2ccccc2F)[nH]1)c1ccccc1 [Compound I-65]
> 100 µM,> 100 µM,O=S(=O)(Nc1ncc(-c2cc(-c3ccccc3)ccc2F)[nH]1)c1ccccc1 [Compound I-67]
> 100 µM,> 100 µM,Cc1cc(-c2ccccc2)cc(C(=O)N2CCC(S(=O)(=O)c3ccccc3)C2)c1F (stereo not drawn) [Compound I-73]
50 to 100 µM,10 to 50 µM,Cc1cc(-c2ccccc2)cc(C(=O)NCCS(=O)(=O)Nc2ccccc2)c1F [Compound I-75]
≤ 10 µM,≤ 10 µM,COc1ccccc1CS(=O)(=O)NNC(=O)c1cc(-c2ccccc2)cc(C)c1F [Compound I-79]
≤ 10 µM,≤ 10 µM,COc1cccc(CS(=O)(=O)NNC(=O)c2cc(-c3ccccc3)cc(C)c2F)c1 [Compound I-80]
50 to 100 µM,10 to 50 µM,COc1ccc(CS(=O)(=O)NNC(=O)c2cc(-c3ccccc3)cc(C)c2F)cc1 [Compound I-81]
≤ 10 µM,≤ 10 µM,Cc1cc(-c2ccccc2)cc(C(=O)NNS(=O)(=O)Cc2ccccc2F)c1F [Compound I-82]
≤ 10 µM,≤ 10 µM,Cc1cc(-c2ccccc2)cc(C(=O)NNS(=O)(=O)Cc2cccc(F)c2)c1F [Compound I-83]

IC50 [1],IC50 [2],Structure (SMILES)
≤ 10 µM,≤ 10 µM,Cc1cc(-c2ccccc2)cc(C(=O)NNS(=O)(=O)Cc2ccc(F)cc2)c1F [Compound I-84]
≤ 10 µM,≤ 10 µM,Cc1cc(-c2ccccc2)cc(C(=O)NNS(=O)(=O)C2CCN(C(=O)OC(C)(C)C)CC2)c1F [Compound I-88]
> 100 µM,> 100 µM,Cc1cc(-c2ccccc2)cc(C(=O)NNS(=O)(=O)C2CCNCC2)c1F [Compound I-89]
10 to 50 µM,10 to 50 µM,Cc1cc(-c2ccccc2)cc(C(=O)NNS(=O)(=O)C2CCN(C)CC2)c1F [Compound I-90]
10 to 50 µM,50 to 100 µM,CCN1CCC(S(=O)(=O)NNC(=O)c2cc(-c3ccccc3)cc(C)c2F)CC1 [Compound I-91]
> 100 µM,> 100 µM,Cc1cc(-c2ccccc2)cc(C(=O)NNS(=O)(=O)C2CCN(C(C)C)CC2)c1F [Compound I-92]
10 to 50 µM,10 to 50 µM,COCCN1CCC(S(=O)(=O)NNC(=O)c2cc(-c3ccccc3)cc(C)c2F)CC1 [Compound I-93]
10 to 50 µM,10 to 50 µM,CC(=O)N1CCC(S(=O)(=O)NNC(=O)c2cc(-c3ccccc3)cc(C)c2F)CC1 [Compound I-94]
> 100 µM,50 to 100 µM,Cc1cc(-c2ccccc2)cc(C(=O)NNS(=O)(=O)C2CCCNC2)c1F (stereo not drawn) [Compound I-97]
> 100 µM,10 to 50 µM,Cc1cc(-c2ccccc2)cc(C(=O)NNS(=O)(=O)C2CCCN(C)C2)c1F (stereo not drawn) [Compound I-98]
> 100 µM,10 to 50 µM,CCN1CCCC(S(=O)(=O)NNC(=O)c2cc(-c3ccccc3)cc(C)c2F)C1 (stereo not drawn) [Compound I-99]
> 100 µM,50 to 100 µM,Cc1cc(-c2ccccc2)cc(C(=O)NNS(=O)(=O)C2CCCN(C(C)C)C2)c1F (stereo not drawn) [Compound I-100]
10 to 50 µM,10 to 50 µM,COCCN1CCCC(S(=O)(=O)NNC(=O)c2cc(-c3ccccc3)cc(C)c2F)C1 (stereo not drawn) [Compound I-101]
10 to 50 µM,10 to 50 µM,CC(=O)N1CCCC(S(=O)(=O)NNC(=O)c2cc(-c3ccccc3)cc(C)c2F)C1 (stereo not drawn) [Compound I-102]
> 100 µM,> 100 µM,COCCN1CC(S(=O)(=O)NNC(=O)c2cccc(C)c2F)C1 [Compound I-103]
50 to 100 µM,10 to 50 µM,CCC(=O)N1CCC(S(=O)(=O)NNC(=O)c2cc(-c3ccccc3)cc(C)c2F)C1 (stereo not drawn) [Compound I-104]
10 to 50 µM,10 to 50 µM,Cc1cc(-c2ccccc2)cc(C(=O)NNS(=O)(=O)C2CCN(C(=O)C(C)C)C2)c1F (stereo not drawn) [Compound I-105]
10 to 50 µM,10 to 50 µM,COCCC(=O)N1CCC(S(=O)(=O)NNC(=O)c2cc(-c3ccccc3)cc(C)c2F)C1 (stereo not drawn) [Compound I-106]
10 to 50 µM,10 to 50 µM,CCC(=O)N1CCC(S(=O)(=O)NNC(=O)c2cc(-c3ccccc3)cc(C)c2F)CC1 [Compound I-107]
≤ 10 µM,10 to 50 µM,Cc1cc(-c2ccccc2)cc(C(=O)NNS(=O)(=O)C2CCN(C(=O)C(C)C)CC2)c1F [Compound I-108]
10 to 50 µM,10 to 50 µM,COCCC(=O)N1CCC(S(=O)(=O)NNC(=O)c2cc(-c3ccccc3)cc(C)c2F)CC1 [Compound I-109]

IC50 [1],IC50 [2],Structure (SMILES)
50 to 100 µM,≤ 10 µM,CCC(=O)N1CCCC(S(=O)(=O)NNC(=O)c2cc(-c3ccccc3)cc(C)c2F)C1 (stereo not drawn) [Compound I-110]
10 to 50 µM,≤ 10 µM,Cc1cc(-c2ccccc2)cc(C(=O)NNS(=O)(=O)C2CCCN(C(=O)C(C)C)C2)c1F (stereo not drawn) [Compound I-111]
10 to 50 µM,10 to 50 µM,COCCC(=O)N1CCCC(S(=O)(=O)NNC(=O)c2cc(-c3ccccc3)cc(C)c2F)C1 (stereo not drawn) [Compound I-112]
50 to 100 µM,10 to 50 µM,CCC(=O)N1CC(S(=O)(=O)NNC(=O)c2cc(-c3ccccc3)cc(C)c2F)C1 [Compound I-113]
> 100 µM,10 to 50 µM,Cc1cc(-c2ccccc2)cc(C(=O)NNS(=O)(=O)C2CN(C(=O)C(C)C)C2)c1F [Compound I-114]
50 to 100 µM,10 to 50 µM,COCCC(=O)N1CC(S(=O)(=O)NNC(=O)c2cc(-c3ccccc3)cc(C)c2F)C1 [Compound I-115]
> 100 µM,> 100 µM,O=C(NNS(=O)(=O)C1CCCCC1)c1ccccc1F [Compound I-116]
> 100 µM,50 to 100 µM,Cc1c(-c2ccccc2)ccc(F)c1C(=O)NNS(=O)(=O)C1CCCCC1 [Compound I-117]
10 to 50 µM,≤ 10 µM,"Cc1cc(-c2ccccc2)cc(C(=O)NNS(=O)(=O)C2CCN(C(=O)OC(C)(C)C)C2)c1F (stereo not drawn) [Compound I-118, tert-Butyl 3-((2-(4-fluoro-5-methyl-[1,1′-biphenyl]-3-carbonyl)hydrazinyl)sulfonyl)pyrrolidine-1-carboxylate]"
10 to 50 µM,10 to 50 µM,"Cc1cc(-c2ccccc2)cc(C(=O)NNS(=O)(=O)C2CN(C(=O)OC(C)(C)C)C2)c1F [Compound I-119, tert-Butyl 3-((2-(4-fluoro-5-methyl-[1,1′-biphenyl]-3-carbonyl)hydrazinyl)sulfonyl)azetidine-1-carboxylate]"
> 100 µM,> 100 µM,"Cc1cc(-c2ccccc2)cc(C(=O)NNS(=O)(=O)C2CNC2)c1F [Compound I-120, N′-(4-Fluoro-5-methyl-[1,1′-biphenyl]-3-carbonyl)azetidine-3-sulfonohydrazide hydrochloride]"
10 to 50 µM,10 to 50 µM,"Cc1cc(-c2ccccc2)cc(C(=O)NNS(=O)(=O)C2CN(C(=O)OCc3ccccc3)C2)c1F [Compound I-121, Benzyl 3-((2-(4-fluoro-5-methyl-[1,1′-biphenyl]-3-carbonyl)hydrazinyl)sulfonyl)azetidine-1-carboxylate]"
> 100 µM,> 100 µM,Cc1nn(Cc2ccccc2)cc1C(=O)NNS(=O)(=O)c1ccccc1 [Compound I-122]
> 100 µM,> 100 µM,Cc1cc(F)c(-c2ccccc2)cc1C(=O)NNS(=O)(=O)c1ccccc1 [Compound I-123]
> 100 µM,> 100 µM,Cc1nn(-c2ccccc2)cc1C(=O)NNS(=O)(=O)c1ccccc1 [Compound I-124]
10 to 50 µM,≤ 10 µM,Cc1cccc(-c2ccc(F)c(C(=O)NNS(=O)(=O)c3ccccc3)c2)c1 [Compound I-125]
50 to 100 µM,≤ 10 µM,Cc1cc(C(=O)NNS(=O)(=O)c2ccccc2)cc(-c2ccccc2)c1F [Compound I-126]
> 100 µM,10 to 50 µM,O=C(NNS(=O)(=O)c1cccc(Cl)c1)c1ccccc1F [Compound I-127]
50 to 100 µM,10 to 50 µM,Cc1c(-c2ccccc2)ccc(F)c1C(=O)NNS(=O)(=O)c1cccc(Cl)c1 [Compound I-128]
10 to 50 µM,≤ 10 µM,COc1cc(-c2ccccc2)cc(C(=O)NNS(=O)(=O)c2ccccc2)c1F [Compound I-129]
> 100 µM,> 100 µM,O=C(NNS(=O)(=O)c1ccccc1Cl)c1ccccc1F [Compound I-130]
